# What was measured:
# [1] = biological target: Testis-specific serine/threonine-protein kinase 1 (Homo sapiens) (UniProt Q9BXA7); conditions: Compound concentration 1000.0 nM
# [2] = biological target: Serine/threonine-protein kinase 16 (Homo sapiens) (UniProt O75716); conditions: Compound concentration 1000.0 nM
# [3] = biological target: Cyclin-dependent kinase 2 homolog (Plasmodium falciparum (isolate 3D7)) (UniProt P61075); conditions: Compound concentration 1000.0 nM
# [4] = biological target: Dual specificity protein kinase CLK1 (Homo sapiens) (UniProt P49759); conditions: Compound concentration 1000.0 nM
# Dual specificity protein kinase CLK1 (Homo sapiens), sequence (P49759 whole entry, looked up): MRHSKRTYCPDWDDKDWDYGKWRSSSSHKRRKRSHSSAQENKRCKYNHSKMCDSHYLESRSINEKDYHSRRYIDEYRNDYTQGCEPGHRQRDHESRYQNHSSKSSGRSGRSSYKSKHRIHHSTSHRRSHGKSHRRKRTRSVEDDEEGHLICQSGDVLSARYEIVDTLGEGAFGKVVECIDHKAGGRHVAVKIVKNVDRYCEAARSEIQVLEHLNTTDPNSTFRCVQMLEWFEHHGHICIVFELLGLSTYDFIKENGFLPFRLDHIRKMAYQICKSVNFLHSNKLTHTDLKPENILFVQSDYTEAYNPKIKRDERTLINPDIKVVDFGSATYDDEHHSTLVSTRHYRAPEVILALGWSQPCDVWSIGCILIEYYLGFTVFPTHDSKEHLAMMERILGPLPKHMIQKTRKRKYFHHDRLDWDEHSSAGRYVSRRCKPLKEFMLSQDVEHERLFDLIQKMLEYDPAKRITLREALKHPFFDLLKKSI
# [5] = GPCRScan assay: inhibition of GABA/PBR; design: species or system Rattus norvegicus; radioligand conc. used [nm] 0.3 – 2.0, parental cells brain tissue
# [6] = biological target: Serine/threonine-protein kinase MRCK alpha (Homo sapiens) (UniProt Q5VT25); conditions: Compound concentration 1000.0 nM
# [7] = biological target: Dual specificity mitogen-activated protein kinase kinase 6 (Homo sapiens) (UniProt P52564); conditions: Compound concentration 1000.0 nM
# [8] = biological target: Misshapen-like kinase 1 (Homo sapiens) (UniProt Q8N4C8); conditions: Compound concentration 1000.0 nM
# [9] = biological target: Muscle, skeletal receptor tyrosine-protein kinase (Homo sapiens) (UniProt O15146); conditions: Compound concentration 1000.0 nM
# Muscle, skeletal receptor tyrosine-protein kinase (Homo sapiens), sequence (O15146 whole entry): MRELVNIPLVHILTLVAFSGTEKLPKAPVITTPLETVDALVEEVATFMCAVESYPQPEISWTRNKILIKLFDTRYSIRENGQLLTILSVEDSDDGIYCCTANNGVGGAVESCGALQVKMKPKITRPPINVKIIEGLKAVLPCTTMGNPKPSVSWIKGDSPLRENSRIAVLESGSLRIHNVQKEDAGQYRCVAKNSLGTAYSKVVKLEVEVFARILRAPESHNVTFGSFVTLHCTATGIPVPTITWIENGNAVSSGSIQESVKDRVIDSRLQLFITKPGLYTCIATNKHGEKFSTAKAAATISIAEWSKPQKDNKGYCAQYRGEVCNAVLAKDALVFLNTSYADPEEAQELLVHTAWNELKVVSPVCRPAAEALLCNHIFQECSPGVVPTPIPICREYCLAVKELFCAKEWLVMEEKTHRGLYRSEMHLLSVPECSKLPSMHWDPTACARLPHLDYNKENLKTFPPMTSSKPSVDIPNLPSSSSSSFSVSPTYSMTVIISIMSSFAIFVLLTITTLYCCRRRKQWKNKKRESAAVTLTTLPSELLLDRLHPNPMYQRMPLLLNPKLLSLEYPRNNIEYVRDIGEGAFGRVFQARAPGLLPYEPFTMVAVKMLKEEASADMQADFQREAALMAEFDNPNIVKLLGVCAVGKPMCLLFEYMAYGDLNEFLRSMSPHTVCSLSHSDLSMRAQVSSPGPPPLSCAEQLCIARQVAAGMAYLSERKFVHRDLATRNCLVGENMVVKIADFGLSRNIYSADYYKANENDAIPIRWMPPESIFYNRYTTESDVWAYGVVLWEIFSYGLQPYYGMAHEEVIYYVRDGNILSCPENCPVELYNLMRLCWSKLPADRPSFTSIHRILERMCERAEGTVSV
# [10] = biological target: Mitogen-activated protein kinase kinase kinase 11 (Homo sapiens) (UniProt Q16584); conditions: Compound concentration 1000.0 nM
# Mitogen-activated protein kinase kinase kinase 11 (Homo sapiens), sequence (Q16584 whole entry, looked up): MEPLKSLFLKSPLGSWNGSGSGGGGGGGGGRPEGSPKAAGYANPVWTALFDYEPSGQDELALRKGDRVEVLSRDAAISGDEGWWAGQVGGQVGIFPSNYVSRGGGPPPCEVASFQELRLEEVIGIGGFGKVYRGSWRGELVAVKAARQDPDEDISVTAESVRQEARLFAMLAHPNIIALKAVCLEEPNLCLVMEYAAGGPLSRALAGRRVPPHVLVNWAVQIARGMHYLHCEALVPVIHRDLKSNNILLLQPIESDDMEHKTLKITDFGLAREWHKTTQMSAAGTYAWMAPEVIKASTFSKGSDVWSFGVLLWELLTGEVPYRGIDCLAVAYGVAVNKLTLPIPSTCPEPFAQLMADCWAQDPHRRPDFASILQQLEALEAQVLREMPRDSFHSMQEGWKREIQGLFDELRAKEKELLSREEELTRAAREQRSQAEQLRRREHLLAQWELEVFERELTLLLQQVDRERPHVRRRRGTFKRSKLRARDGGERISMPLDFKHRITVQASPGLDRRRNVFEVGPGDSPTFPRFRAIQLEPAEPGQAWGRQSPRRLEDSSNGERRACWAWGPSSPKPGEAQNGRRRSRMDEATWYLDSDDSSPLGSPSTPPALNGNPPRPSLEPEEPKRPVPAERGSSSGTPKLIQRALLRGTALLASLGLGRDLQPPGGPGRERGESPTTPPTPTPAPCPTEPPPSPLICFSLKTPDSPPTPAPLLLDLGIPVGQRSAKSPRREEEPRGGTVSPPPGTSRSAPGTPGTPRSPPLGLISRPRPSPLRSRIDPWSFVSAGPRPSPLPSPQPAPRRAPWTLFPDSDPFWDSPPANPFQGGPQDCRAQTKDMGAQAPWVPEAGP
# [11] = biological target: Calcium/calmodulin-dependent protein kinase kinase 2 (Homo sapiens) (UniProt Q96RR4); conditions: Compound concentration 1000.0 nM
# [12] = biological target: Dual specificity mitogen-activated protein kinase kinase 5 (Homo sapiens) (UniProt Q13163); conditions: Compound concentration 1000.0 nM
# [13] = biological target: Beta-adrenergic receptor kinase 1 (Homo sapiens) (UniProt P25098); conditions: Compound concentration 1000.0 nM
# [14] = biological target: STE20/SPS1-related proline-alanine-rich protein kinase (Homo sapiens) (UniProt Q9UEW8); conditions: Compound concentration 1000.0 nM
# [15] = biological target: Tyrosine-protein kinase JAK1 (Homo sapiens) (UniProt P23458); conditions: Compound concentration 1000.0 nM
# Tyrosine-protein kinase JAK1 (Homo sapiens), sequence (P23458 whole entry): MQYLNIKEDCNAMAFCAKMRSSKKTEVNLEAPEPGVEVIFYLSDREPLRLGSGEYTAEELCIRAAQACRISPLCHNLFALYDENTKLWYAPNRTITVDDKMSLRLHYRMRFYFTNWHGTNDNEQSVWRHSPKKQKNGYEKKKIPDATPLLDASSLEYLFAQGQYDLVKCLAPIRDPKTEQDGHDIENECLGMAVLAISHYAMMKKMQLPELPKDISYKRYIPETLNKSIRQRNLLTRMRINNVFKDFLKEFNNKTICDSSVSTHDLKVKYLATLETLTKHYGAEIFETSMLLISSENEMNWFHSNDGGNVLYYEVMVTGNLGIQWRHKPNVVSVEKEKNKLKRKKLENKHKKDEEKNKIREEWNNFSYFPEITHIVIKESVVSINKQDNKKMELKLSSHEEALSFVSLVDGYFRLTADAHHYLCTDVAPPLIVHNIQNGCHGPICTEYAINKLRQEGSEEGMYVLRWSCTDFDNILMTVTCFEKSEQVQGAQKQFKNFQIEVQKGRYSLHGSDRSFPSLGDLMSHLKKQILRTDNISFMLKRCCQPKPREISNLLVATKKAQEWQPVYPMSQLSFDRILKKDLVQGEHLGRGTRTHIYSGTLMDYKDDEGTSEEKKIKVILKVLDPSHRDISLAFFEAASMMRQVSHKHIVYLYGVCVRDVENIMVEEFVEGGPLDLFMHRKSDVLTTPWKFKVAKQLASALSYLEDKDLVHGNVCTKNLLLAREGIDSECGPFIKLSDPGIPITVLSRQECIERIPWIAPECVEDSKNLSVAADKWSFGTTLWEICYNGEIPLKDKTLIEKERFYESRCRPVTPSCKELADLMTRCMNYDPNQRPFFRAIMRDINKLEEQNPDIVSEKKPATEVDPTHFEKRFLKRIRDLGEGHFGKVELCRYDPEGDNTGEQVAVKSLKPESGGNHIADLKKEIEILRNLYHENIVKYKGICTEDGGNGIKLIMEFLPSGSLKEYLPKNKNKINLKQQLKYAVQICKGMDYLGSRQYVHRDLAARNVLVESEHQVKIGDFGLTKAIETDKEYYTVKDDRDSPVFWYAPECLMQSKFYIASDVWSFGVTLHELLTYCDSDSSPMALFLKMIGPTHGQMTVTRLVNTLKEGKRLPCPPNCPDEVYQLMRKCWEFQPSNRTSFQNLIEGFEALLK
# [16] = biological target: Adrenergic receptor alpha-1 (Homo sapiens) (UniProt P35348+P25100+P35368); test: alpha1 CEREP ligand profiling; format: protein assay; conditions: Compound concentration 10.0 uM
# [17] = biological target: Histamine H1 receptor (Homo sapiens) (UniProt P35367); test: H1 (h) CEREP ligand profiling; conditions: Compound concentration 10.0 uM
# [18] = biological target: Melatonin receptor type 1A (Homo sapiens) (UniProt P48039); test: MT1 (h) CEREP ligand profiling; conditions: Compound concentration 10.0 uM
# [19] = biological target: Cannabinoid receptor 1 (Homo sapiens) (UniProt P21554); test: CB1 (h) CEREP ligand profiling; conditions: Compound concentration 10.0 uM
# [20] = biological target: D(1A) dopamine receptor (Homo sapiens) (UniProt P21728); test: D1 (h) CEREP ligand profiling; conditions: Compound concentration 10.0 uM
# [21] = biological target: D(2) dopamine receptor (Homo sapiens) (UniProt P14416); test: D2S (h) CEREP ligand profiling; conditions: Compound concentration 10.0 uM
# [22] = biological target: Translocator protein (Rattus norvegicus) (UniProt P16257); test: BZD-peripheral CEREP ligand profiling; conditions: Compound concentration 10.0 uM
# [23] = biological target: Mu-type opioid receptor (Homo sapiens) (UniProt P35372); test: mu (h) (MOP) CEREP ligand profiling; conditions: Compound concentration 10.0 uM
# [24] = biological target: Kappa-type opioid receptor (Cavia porcellus) (UniProt P41144); test: kappa (guinea pig) CEREP ligand profiling; conditions: Compound concentration 10.0 uM
# [25] = biological target: Galanin receptor type 1 (Homo sapiens) (UniProt P47211); test: GAL1 (h) CEREP ligand profiling; conditions: Compound concentration 10.0 uM
# [26] = biological target: B2 bradykinin receptor (Homo sapiens) (UniProt P30411); test: B2 (h) CEREP ligand profiling; conditions: Compound concentration 10.0 uM
# [27] = biological target: Gastrin/cholecystokinin type B receptor (Homo sapiens) (UniProt P32239); test: CCKB (h) CEREP ligand profiling; conditions: Compound concentration 10.0 uM
# [28] = biological target: T1, 5-hydroxytryptamine receptor 3A (Homo sapiens) (UniProt P46098); test: 5-HT3 (h) CEREP ligand profiling; conditions: Compound concentration 10.0 uM
# T1 sequence (whole entry): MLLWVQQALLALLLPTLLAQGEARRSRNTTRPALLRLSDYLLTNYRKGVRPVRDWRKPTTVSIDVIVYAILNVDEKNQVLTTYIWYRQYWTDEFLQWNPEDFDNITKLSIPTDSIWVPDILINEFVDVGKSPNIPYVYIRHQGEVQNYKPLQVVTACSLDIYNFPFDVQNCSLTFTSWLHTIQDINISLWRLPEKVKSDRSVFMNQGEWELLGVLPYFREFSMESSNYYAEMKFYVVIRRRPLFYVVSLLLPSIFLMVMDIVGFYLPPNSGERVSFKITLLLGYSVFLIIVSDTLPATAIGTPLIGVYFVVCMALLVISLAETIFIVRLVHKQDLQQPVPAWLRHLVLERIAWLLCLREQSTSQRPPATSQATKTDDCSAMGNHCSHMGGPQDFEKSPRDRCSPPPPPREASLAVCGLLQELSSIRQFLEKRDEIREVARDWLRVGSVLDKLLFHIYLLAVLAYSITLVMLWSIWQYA
# [29] = biological target: C-X-C chemokine receptor type 2 (Homo sapiens) (UniProt P25025); test: CXCR2 (h) CEREP ligand profiling; conditions: Compound concentration 10.0 uM
# [30] = biological target: Adenosine receptor A1 (Homo sapiens) (UniProt P30542); test: A1 CEREP ligand profiling; conditions: Compound concentration 10.0 uM
# [31] = biological target: D(1B) dopamine receptor (Homo sapiens) (UniProt P21918); test: D5 (h) CEREP ligand profiling; conditions: Compound concentration 10.0 uM
# D(1B) dopamine receptor (Homo sapiens), sequence (P21918 whole entry): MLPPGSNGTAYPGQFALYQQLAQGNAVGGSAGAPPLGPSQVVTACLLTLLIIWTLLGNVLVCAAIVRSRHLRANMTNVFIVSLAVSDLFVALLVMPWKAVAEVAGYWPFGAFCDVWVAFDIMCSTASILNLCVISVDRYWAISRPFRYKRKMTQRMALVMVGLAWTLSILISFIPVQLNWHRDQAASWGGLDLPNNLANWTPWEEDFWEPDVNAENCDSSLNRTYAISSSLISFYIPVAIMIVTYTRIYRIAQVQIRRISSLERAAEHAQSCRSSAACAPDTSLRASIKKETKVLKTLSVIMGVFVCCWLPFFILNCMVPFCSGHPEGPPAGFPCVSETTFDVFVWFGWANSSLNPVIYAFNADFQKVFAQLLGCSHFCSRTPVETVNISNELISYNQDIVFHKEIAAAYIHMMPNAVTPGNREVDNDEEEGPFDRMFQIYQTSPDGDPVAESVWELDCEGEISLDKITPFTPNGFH
# [32] = biological target: 5-hydroxytryptamine receptor 2A (Homo sapiens) (UniProt P28223); test: 5-HT2A (h) CEREP ligand profiling; conditions: Compound concentration 10.0 uM
# [33] = biological target: 5-hydroxytryptamine receptor 7 (Homo sapiens) (UniProt P34969); test: 5-HT7 (h) CEREP ligand profiling; conditions: Compound concentration 10.0 uM
# [34] = biological target: Sigma non-opioid intracellular receptor 1 (Homo sapiens, UniProt Q99720); test: sigma CEREP ligand profiling; conditions: Compound concentration 10.0 uM
# Sigma non-opioid intracellular receptor 1, sequence (Q99720 whole entry): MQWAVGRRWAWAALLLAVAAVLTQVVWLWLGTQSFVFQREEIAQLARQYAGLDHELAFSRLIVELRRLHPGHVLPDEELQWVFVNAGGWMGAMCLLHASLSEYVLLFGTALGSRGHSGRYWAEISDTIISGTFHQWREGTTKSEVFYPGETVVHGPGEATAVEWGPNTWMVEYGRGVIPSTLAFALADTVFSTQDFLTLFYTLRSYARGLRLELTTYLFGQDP
# [35] = biological target: Melanocortin receptor 4 (Homo sapiens) (UniProt P32245); test: MC4 (h) CEREP ligand profiling; conditions: Compound concentration 10.0 uM
# Cyclin-dependent kinase 2 homolog (Plasmodium falciparum (isolate 3D7)), sequence (P61075 whole entry): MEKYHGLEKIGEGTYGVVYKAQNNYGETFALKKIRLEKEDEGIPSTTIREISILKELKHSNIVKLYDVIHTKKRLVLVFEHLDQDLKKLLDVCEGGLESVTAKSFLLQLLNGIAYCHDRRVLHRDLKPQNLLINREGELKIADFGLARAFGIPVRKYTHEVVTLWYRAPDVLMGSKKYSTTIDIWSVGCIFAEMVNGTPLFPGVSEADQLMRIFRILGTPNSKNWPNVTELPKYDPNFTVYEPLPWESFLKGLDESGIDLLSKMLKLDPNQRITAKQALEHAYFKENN
# Testis-specific serine/threonine-protein kinase 1 (Homo sapiens), sequence (Q9BXA7 whole entry): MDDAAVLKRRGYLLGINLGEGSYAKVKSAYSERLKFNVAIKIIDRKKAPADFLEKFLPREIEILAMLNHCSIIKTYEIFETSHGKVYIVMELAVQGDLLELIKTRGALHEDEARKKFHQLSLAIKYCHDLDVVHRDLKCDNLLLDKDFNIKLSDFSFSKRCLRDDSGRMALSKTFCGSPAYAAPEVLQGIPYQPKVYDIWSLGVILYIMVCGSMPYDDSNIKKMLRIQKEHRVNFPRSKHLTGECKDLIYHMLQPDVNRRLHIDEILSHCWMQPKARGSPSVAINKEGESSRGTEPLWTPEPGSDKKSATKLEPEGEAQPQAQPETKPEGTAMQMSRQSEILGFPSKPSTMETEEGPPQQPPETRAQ
# Serine/threonine-protein kinase 16 (Homo sapiens), sequence (O75716 whole entry): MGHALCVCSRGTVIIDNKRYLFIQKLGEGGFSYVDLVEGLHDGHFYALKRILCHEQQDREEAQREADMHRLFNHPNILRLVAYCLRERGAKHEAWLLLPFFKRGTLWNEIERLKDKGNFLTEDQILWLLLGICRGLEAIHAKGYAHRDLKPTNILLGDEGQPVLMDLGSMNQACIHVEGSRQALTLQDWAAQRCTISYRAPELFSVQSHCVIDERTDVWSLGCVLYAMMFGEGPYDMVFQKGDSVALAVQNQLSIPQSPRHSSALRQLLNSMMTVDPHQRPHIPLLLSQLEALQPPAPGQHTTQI
compound,measurement,setting,value
CCC(=N\O)/C(C)=C/c1ccc(F)c(C)c1 [A-226],residual activity,[1],90%
same,residual activity,[2],84%
same,residual activity,[3],100%
same,residual activity,[4],100%
same,Ki,[5],3.69 µM
same,pKi,[5],5.44
same,residual activity,[6],100%
same,residual activity,[7],100%
same,residual activity,[8],92%
same,residual activity,[9],100%
same,residual activity,[10],79%
same,residual activity,[11],88%
same,residual activity,[12],86%
same,residual activity,[13],100%
same,residual activity,[14],100%
same,residual activity,[15],100%
CCC(=N\O)/C(C)=C/c1ccc(F)cc1 [A-079],inhibition,[16],6%
same,inhibition,[17],4%
same,inhibition,[18],31%
same,inhibition,[19],3%
same,residual activity,[1],82%
same,inhibition,[20],6%
same,inhibition,[21],4%
same,inhibition,[22],6%
same,inhibition,[23],12%
same,inhibition,[24],-4%
same,residual activity,[2],97%
same,residual activity,[3],84%
same,residual activity,[4],79%
same,inhibition,[25],5%
same,inhibition,[26],2%
same,inhibition,[27],7%
same,inhibition,[28],0%
same,residual activity,[6],100%
same,residual activity,[9],90%
same,residual activity,[10],88%
same,inhibition,[29],-1%
same,inhibition,[30],8%
same,inhibition,[31],-8%
same,inhibition,[32],-1%
same,residual activity,[14],94%
same,inhibition,[33],17%
same,residual activity,[15],88%
same,inhibition,[34],-2%
same,inhibition,[35],2%

# — ChEMBL document CHEMBL4507256 (2021)
